Experimental data taken from patent publication US7871793B2, “Antimicrobial carbohydrates and methods of using same” (Burnham Institute for Medical Research, priority 2004, dated 2011).

What was measured:
H. pylori infection = conditions: patients; cited from earlier work
H. pylori (ATCC43504) = assay: Cultivation of H. pylori in the presence or absence of cholesterol; format: cell-based, Helicobacter pylori; conditions: Ham's F-12 with 0.005% cholesterol, 5 days
[1] = tested on: Helicobacter pylori (ATCC43504); assay: Cell growth assay of H. pylori (microbroth dilution, OD 600 nm); format: cell-based; conditions: ATCC43504, Brucella broth, 96-well plate, 35° C., 15% CO2, 4 days, OD600
H. pylori = assay: Cell motility assay (time-lapse confocal images); format: cell-based, Helicobacter pylori; conditions: 31.2 mU/ml or same protein concentration, 3 days, mean±SD
[2] = tested on: UDP-Glc:sterol glucosyltransferase; assay: In vitro synthesis of CGL from UDP-Glc and cholesterol by sonicated H. pylori; format: biochemical, Helicobacter pylori; conditions: 5.0 mU in 100 μl reaction (50.0 mU/ml), 30° C., 3 hours

CC[C@H]1OC(=O)[C@H](C)[C@@H](O[C@H]2C[C@@](C)(OC)[C@@H](O)[C@H](C)O2)[C@H](C)[C@@H](O[C@@H]2O[C@H](C)C[C@H](N(C)C)[C@H]2O)[C@](C)(OC)C[C@@H](C)C(=O)[C@H](C)[C@@H](O)[C@]1(C)O [clarithromycin]
eradication rate (H. pylori infection): about 40%

CC(C)CCC[C@@H](C)[C@H]1CC[C@H]2[C@@H]3CC=C4C[C@@H](O)CC[C@]4(C)[C@H]3CC[C@]12C [cholesterol]
morphology (H. pylori (ATCC43504)): normal | motility (H. pylori (ATCC43504)): good | CFU/ml (H. pylori (ATCC43504); 35° C.): 1 × 10^8 CFU/ml

Cc1ncc([N+](=O)[O-])n1CCO [metronidazole]
eradication rate (H. pylori infection): less than 10%

CC1(C)S[C@@H]2[C@H](NC(=O)[C@H](N)c3ccc(O)cc3)C(=O)N2[C@H]1C(=O)O [amoxicillin]
eradication rate (H. pylori infection): less than 20%

B1: CD43 free of a GlcNAcα residue: control soluble CD43 produced without α4GnT cDNA; side chain Galβ1→4GlcNAcβ1→6(Galβ1→3)GalNAcα→Ser/Thr (protein, UniProt P16150 20-253, looked up)
extracellular domain: STTAVQTPTSGEPLVSTSEPLSSKMYTTSITSDPKADSTGDQTSALPPSTSINEGSPLWTSIGASTGSPLPEPTTYQEVSIKMSSVPQETPHATSHPAVPITANSLGSHTVTGGTITTNSPETSSRTSGAPVTTAASSLETSRGTSGPPLTMATVSLETSKGTSGPPVTMATDSLETSTGTTGPPVTMTTGSLEPSSGASGPQVSSVKLSTMMSPTTSTNASTVPFRNPDENSR
modifications: extracellular domain core2 O-glycans lacking terminal GlcNAc
notes: control soluble CD43 produced without α4GnT cDNA; side chain Galβ1→4GlcNAcβ1→6(Galβ1→3)GalNAcα→Ser/Thr
growth of H. pylori [1]: drastic growth | mean velocity of seven H. pylori (H. pylori): 21.1±2.6 μm/sec | mean velocity of seven H. pylori (H. pylori; listed as αGlcNAc (−)): 21.2±2.6 μm/sec | peak of CGL at m/z 571.6 in products of sonicated H. pylori [2]: a peak of CGL was detected
